Laboratory results taken from patent publication US11999727B2 (Tango Therapeutics, Inc., priority 2020, dated 2024).

Assays:
PRMT5 [1] = molecular target: T1, PRMT5 (Homo sapiens, UniProt O14744); test: PRMT5 biochemical IC50 assay with SAM as cofactor; conditions: PRMT5, SAM as cofactor; read-out: SAM IC50
T1 construct: purchased Viva (custom protein)

PRMT5 [2] = molecular target: T1, PRMT5; test: PRMT5 biochemical IC50 assay with MTA as cofactor; conditions: PRMT5, MTA as cofactor; read-out: MTA IC50
[3] = system: HAP1 MTAP-deleted cell line; test: SDMA in-cell western assay, HAP1 MTAP-deleted; type: cell-based; conditions: for IC50: Homo sapiens, HAP1, SDMA in-cell western, HAP1 MTAP-deleted, read-out: HAP1 MTAP deleted IC50; for MTAP intact/deleted ratio: IC50 ratio HAP1 MTAP-intact / HAP1 MTAP-deleted, SDMA in-cell western
How it was run: (§1)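 MTAP-null vs endogenous-MTAP HAP1 isogenic cells; in-cell western SDMA readout; IC50 per line.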

[4] = system: HAP1 MTAP-intact cell line; test: SDMA in-cell western assay, HAP1 MTAP-intact; type: cell-based; conditions: Homo sapiens, HAP1, SDMA in-cell western, HAP1 MTAP-intact; read-out: MTAP HAP1 intact IC50
How it was run: as §1

[5] = system: HAP1 MTAP-deleted cell line; test: Viability assay, MTAP-deleted cell line; type: cell-based; conditions: Homo sapiens, HAP1, viability assay, MTAP-deleted cell line; read-out: HAP1 MTAP deleted viability
Source text: Table 1 additionally indicates IC50 values in a viability assay for the MTAP-deleted cell line (column 10), indicating the effect of treatment with compound on cell survival.

PRMT5 [6] = molecular target: T1, PRMT5; test: PRMT5 biochemical IC50 assay with no cofactor; conditions: PRMT5, no cofactor; read-out: No Cofactor/rel IC50
Source text: Table 1 indicates IC50 values (μM) against PRMT5 for exemplary compounds in the presence of SAM as cofactor, with no cofactor, and with MTA as cofactor, respectively (columns 4-6). […] Ki values can be calculated from the IC50 values as described in the Examples section. As detailed in the Examples section, for the assay performed in the presence of SAM, IC50=Ki×1.5 (Ki=IC50/1.5).

T1 sequence (O14744 whole entry): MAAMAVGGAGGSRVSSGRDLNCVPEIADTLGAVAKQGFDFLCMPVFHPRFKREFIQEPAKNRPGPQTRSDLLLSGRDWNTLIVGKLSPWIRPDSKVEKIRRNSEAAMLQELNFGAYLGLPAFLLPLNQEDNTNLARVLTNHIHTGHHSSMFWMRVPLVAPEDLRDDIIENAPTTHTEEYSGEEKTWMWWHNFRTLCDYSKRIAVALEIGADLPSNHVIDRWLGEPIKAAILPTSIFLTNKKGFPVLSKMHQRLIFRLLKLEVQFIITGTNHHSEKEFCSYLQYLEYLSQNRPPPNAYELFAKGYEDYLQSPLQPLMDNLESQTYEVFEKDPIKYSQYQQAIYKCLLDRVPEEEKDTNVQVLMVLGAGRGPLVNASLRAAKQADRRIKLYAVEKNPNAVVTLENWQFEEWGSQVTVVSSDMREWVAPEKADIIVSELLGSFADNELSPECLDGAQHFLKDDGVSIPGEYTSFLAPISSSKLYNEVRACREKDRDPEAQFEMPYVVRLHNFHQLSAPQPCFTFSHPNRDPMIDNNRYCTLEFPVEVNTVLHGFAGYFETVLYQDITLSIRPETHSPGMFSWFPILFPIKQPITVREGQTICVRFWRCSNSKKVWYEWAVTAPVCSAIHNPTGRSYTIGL
T1 sequence (Q9BQA1 whole entry partner): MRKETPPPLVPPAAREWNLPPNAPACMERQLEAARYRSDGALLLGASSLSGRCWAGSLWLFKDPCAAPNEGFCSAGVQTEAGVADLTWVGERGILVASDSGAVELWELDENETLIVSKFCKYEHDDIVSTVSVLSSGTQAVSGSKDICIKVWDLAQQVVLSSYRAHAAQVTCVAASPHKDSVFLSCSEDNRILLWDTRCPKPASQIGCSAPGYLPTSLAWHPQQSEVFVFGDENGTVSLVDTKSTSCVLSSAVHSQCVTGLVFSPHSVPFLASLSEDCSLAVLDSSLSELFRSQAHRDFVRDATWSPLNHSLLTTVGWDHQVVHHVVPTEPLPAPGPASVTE

`C[C@@H]1CC[C@@H](c2ccc(N3CCCC3)nc2)N(C(=O)C(=O)Nc2cncc(C(N)=O)c2)C1` (racemic) [Compound 207, rac-5-{2-[(2R,5S)-5-methyl-2-[6-(pyrrolidin-1-yl)pyridin-3-yl]piperidin-1-yl]-2-oxoacetamido}pyridine-3-carboxamide] was tested, and the IC50 (PRMT5 [1]) was over 500 nM, the IC50 (PRMT5 [2]) was 50 to 500 nM and the IC50 [3] was 100 to 1000 nM. The MTAP intact/deleted ratio [3] was “A (an IC50 ratio greater than or equal to 10 fold)”, the IC50 [4] was over 1000 nM and the IC50 [5] was 1000 to 10000 nM. For the same molecule, the IC50 (PRMT5 [6]) was 50 to 500 nM.
`COc1ccc([C@@H]2CC[C@@H](C)CN2C(=O)C(=O)Nc2cncc(C(N)=O)c2)cc1F` (racemic) [Compound 208, rac-5-{2-[(2R,5S)-2-(3-Fluoro-4-methoxyphenyl)-5-methylpiperidin-1-yl]-2-oxoacetamido}pyridine-3-carboxamide] gave an IC50 (PRMT5 [1]) of 50 to 500 nM, an IC50 (PRMT5 [2]) of under 50 nM and an IC50 [3] of 100 to 1000 nM. The MTAP intact/deleted ratio [3] was “A (an IC50 ratio greater than or equal to 10 fold)”, the IC50 [4] was over 1000 nM and the IC50 [5] was 1000 to 10000 nM. For the same molecule, the IC50 (PRMT5 [6]) was 50 to 500 nM.
`CNc1ccc([C@@H]2CC[C@@H](C)CN2C(=O)C(=O)Nc2cncc(C(N)=O)c2)cn1` (racemic) [Compound 209, rac-5-{2-[(2R,5S)-5-Methyl-2-[6-(methylamino)pyridin-3-yl]piperidin-1-yl]-2-oxoacetamido}pyridine-3-carboxamide] gave an IC50 (PRMT5 [1]) of 50 to 500 nM, an IC50 (PRMT5 [2]) of under 50 nM and an IC50 [3] of under 100 nM. For the same molecule, the MTAP intact/deleted ratio [3] was “A (an IC50 ratio greater than or equal to 10 fold)”, the IC50 [4] was over 1000 nM and the IC50 [5] was 1000 to 10000 nM. For the same molecule, the IC50 (PRMT5 [6]) was 50 to 500 nM.
Work on `C[C@@H]1CC[C@@H](c2ccc(Cl)cc2)N(C(=O)C(=O)Nc2cncc(C(N)=O)c2)C1` (racemic) [Compound 212, rac-5-[[2-[(2S,5R)-2-(4-chlorophenyl)-5-methyl-1-piperidyl]-2-oxo-acetyl]amino]pyridine-3-carboxamide] yielded an IC50 (PRMT5 [1]) of 50 to 500 nM, an IC50 (PRMT5 [2]) of under 50 nM and an IC50 [3] of under 100 nM. For the same molecule, the MTAP intact/deleted ratio [3] was “A (an IC50 ratio greater than or equal to 10 fold)”, the IC50 [4] was over 1000 nM and the IC50 [5] was 1000 to 10000 nM. For the same molecule, the IC50 (PRMT5 [6]) was 50 to 500 nM.
Molecule `C[C@@H]1CC[C@@H](c2ccc(CN3CCOCC3)cc2)N(C(=O)C(=O)Nc2cncc(C(N)=O)c2)C1` (racemic) [Compound 213] has an IC50 (PRMT5 [1]) of 50 to 500 nM, an IC50 (PRMT5 [2]) of under 50 nM and an IC50 [3] of 100 to 1000 nM. For the same molecule, the MTAP intact/deleted ratio [3] was “A (an IC50 ratio greater than or equal to 10 fold)”, the IC50 [4] was over 1000 nM and the IC50 [5] was over 10000 nM. It also gave an IC50 (PRMT5 [6]) of 50 to 500 nM.
Work on `COc1cccc([C@@H]2CC[C@@H](C)CN2C(=O)C(=O)Nc2cncc(C(N)=O)c2)c1` (racemic) [Compound 214, rac-5-{2-[(2R,5S)-2-(3-Methoxyphenyl)-5-methylpiperidin-1-yl]-2-oxoacetamido}pyridine-3-carboxamide] yielded an IC50 (PRMT5 [1]) of 50 to 500 nM, an IC50 (PRMT5 [2]) of under 50 nM and an IC50 [3] of under 100 nM. It also gave an IC50 [4] of over 1000 nM, an IC50 [5] of 1000 to 10000 nM and an IC50 (PRMT5 [6]) of 50 to 500 nM.
Work on `Cc1cccc2cc([C@@H]3CC[C@@H](C)CN3C(=O)C(=O)Nc3cncc(C(N)=O)c3)cnc12` (racemic) [Compound 215, rac-5-{2-[(2R,5S)-5-Methyl-2-(8-methylquinolin-3-yl)piperidin-1-yl]-2-oxoacetamido}pyridine-3-carboxamide] yielded an IC50 (PRMT5 [1]) of over 500 nM, an IC50 (PRMT5 [2]) of 50 to 500 nM and an IC50 [3] of over 1000 nM. For the same molecule, the MTAP intact/deleted ratio [3] was “B (an IC50 ratio greater than or equal to 3 fold but lower than 10 fold)”, the IC50 [4] was over 1000 nM and the IC50 [5] was over 10000 nM. It also gave an IC50 (PRMT5 [6]) of over 500 nM.
With `Cc1cnn(-c2ccc([C@@H]3CC[C@@H](C)CN3C(=O)C(=O)Nc3cncc(C(N)=O)c3)cc2)c1` (racemic) [Compound 218, rac-5-{2-[(2R,5S)-5-Methyl-2-[4-(4-methyl-11H-pyrazol-1-yl)phenyl]piperidin-1-yl]-2-oxoacetamido}pyridine-3-carboxamide] the IC50 (PRMT5 [1]) was 50 to 500 nM, the IC50 (PRMT5 [2]) was under 50 nM and the IC50 [3] was under 100 nM. For the same molecule, the MTAP intact/deleted ratio [3] was “A (an IC50 ratio greater than or equal to 10 fold)”, the IC50 [4] was over 1000 nM and the IC50 [5] was 1000 to 10000 nM. It also gave an IC50 (PRMT5 [6]) of 50 to 500 nM.
With `C[C@@H]1CC[C@@H](c2ccc(C(N)=O)cc2)N(C(=O)C(=O)Nc2cncc(C(N)=O)c2)C1` (racemic) [Compound 220, rac-5-{2-[(2R,5S)-2-(4-Carbamoylphenyl)-5-methylpiperidin-1-yl]-2-oxoacetamido}pyridine-3-carboxamide] the IC50 (PRMT5 [1]) was 50 to 500 nM, the IC50 (PRMT5 [2]) was under 50 nM and the IC50 [3] was 100 to 1000 nM. The MTAP intact/deleted ratio [3] was “A (an IC50 ratio greater than or equal to 10 fold)”, the IC50 [4] was over 1000 nM and the IC50 [5] was over 10000 nM. It also gave an IC50 (PRMT5 [6]) of 50 to 500 nM.
